Results reported in US11578083B2, “Pyrimidinium compounds and their mixtures for combating animal pests” (BASF SE, priority 2017, dated 2023).

What was measured:
Type in all cases: in vivo
[1] = system: Thrips (Dichromothrips corbetti); assay: B.4 Thrips floral-immersion test; conditions: 72 h
Method: B.4 Thrips (Dichromothrips Corbetti):
Dichromothrips corbetti adults used for bioassay are obtained from a colony maintained continuously under laboratory conditions. For testing purposes, the test compound is diluted in a 1:1 mixture of acetone:water (vol:vol), plus 0.01% vol/vol Alkamuls® EL 620 surfactant.
Thrips potency of each compound is evaluated by using a floral-immersion technique. Plastic petri dishes are used as test arenas. All petals of individual, intact orchid flowers are dipped into treatment solution and allowed to dry. Treated flowers are placed into individual petri dishes along with about 20 adult thrips. The petri dishes v then covered with lids. All test arenas are held under continuous light and a temperature of about 28° C. for duration of the assay. After 3 days, the numbers of live thrips are counted on each flower, and along inner walls of each petri dish. The percent mortality is recorded 72 hours after treatment.

Chilo suppressalis = assay: B.3b Rice striped stem borer, foliar spraying
Method: All three pots (=replicates) of four to five-week old potted rice per treatment were simultaneously sprayed with 12 mL test solution. After spray application, plants were air dried in the laboratory before inoculation. After air-drying, 5 to 6-day old egg masses of CHILSU were used for inoculation. All stem borer-infested potted rice plants were transferred inside the screenhouse 1 day after inoculation until the final assessment. […] Whole plant damage was assessed before cutting each hill at the basal portion for tiller dissection. Each dissected tiller was inspected looking for dead (if possible) and alive stemborer larvae.

[2] = system: vetch aphid (Megoura viciae); assay: Test 7 vetch aphid, leaf disks (mixtures)
Method: For evaluating control of vetch aphid (Megoura viciae) through contact or systemic means the test unit consisted of 24-well-microtiter plates containing broad bean leaf disks.
The compounds or mixtures were formulated using a solution containing 75% water and 25% DMSO. Concentrations of formulated compounds or mixtures were sprayed onto the leaf disks at 2.5 μl, using a custom built micro atomizer, at two replications.
(§1) For experimental mixtures in these tests identical volumes of both mixing partners at the desired concentrations respectively, were mixed together.
After application, the leaf disks were air-dried and 5-8 adult aphids placed on the leaf disks inside the microtiter plate wells. The aphids were then allowed to suck on the treated leaf disks and incubated at 23±1° C., 50±5% RH for 5 days. Aphid mortality and fecundity was then visually assessed.

[3] = system: yellow fever mosquito (Aedes aegypti); conditions: Table 12; Yellow Fever Mosquito; solo application I-R-1, use rate 10 ppm
Method: For evaluating control of yellow fever mosquito (Aedes aegypti) the test unit consisted of 96-well-microtiter plates containing 200 μl of tap water per well and 5-15 freshly hatched A. aegypti larvae.
(§2) The compounds or mixtures were formulated using a solution containing 75% water and 25% DMSO. Different concentrations of formulated compounds or mixtures were sprayed onto the insect diet at 2.5 μl, using a custom built micro atomizer, at two replications.
as §1
After application, microtiter plates were incubated at 28±1° C., 80±5% RH for 2 days. Larval mortality was then visually assessed.

[4] = system: brown planthopper (Nilaparvata lugens); assay: Test 6 brown planthopper, foliar spray (mixtures); conditions: solo application I-R-1, use rate 5 ppm
Method: For evaluating control of brown planthopper (Nilaparvata lugens) by foliar spray method. Clean potted rice seedlings with upper leaf portion cut are properly labeled. Placed three potted rice plants per treatment concentration/combination on top of the rotating disc (270 mm) and sprayed with the 12 mL spray solution. Treated plants are allowed to air-dry in the laboratory for about an hour. After air-drying, covered each treated rice plant. Each treated plant was infested with brown planthoppers using a suction vacuum. Plants are maintained at 27° C.±1° C., 50±5% RH and 24 hours light conditions in a holding room. Percent mortality is recorded 7 days after infestation by counting both the dead and alive brown planthoppers on the plants and on the water.

[5] = system: boll weevil (Anthonomus grandis); assay: Test 9 boll weevil, insect diet with eggs (mixtures)
Method: For evaluating control of boll weevil (Anthonomus grandis) the test unit consisted of 24-well-microtiter plates containing an insect diet and 20-30 A. grandis eggs.
The compounds or mixtures were formulated using a solution containing 75% water and 25% DMSO. Concentrations of formulated compounds or mixtures were sprayed onto the insect diet at 20 μl, using a custom built micro atomizer, at two replications.
as §1
After application, microtiter plates were incubated at 23±1° C., 50±5% RH for 5 days. Egg and larval mortality was then visually assessed.

[6] = system: Greenhouse Whitefly (Trialeurodes vaporariorum); assay: Test 11 Greenhouse Whitefly, egg plant leaf disk (mixtures)
Method: For evaluating control of Greenhouse Whitefly (Trialeurodes vaporariorum) the test unit consisted of 96-well-microtiter plates containing a leaf disk of egg plant leaf disk with white fly eggs.
as §2, §1
After application, microtiter plates were incubated at 23±1° C., 65±5% RH for 6 days. Mortality of hatched crawlers was then visually assessed.

[7] = system: tobacco budworm (Heliothis virescens); assay: Test 4 tobacco budworm, insect diet with eggs (mixtures)
Method: For evaluating control of tobacco budworm (Heliothis virescens) the test unit consisted of 96-well-microtiter plates containing an insect diet and 15-25 H. virescens eggs.
The compounds or mixtures were formulated using a solution containing 75% water and 25% DMSO. Concentrations of formulated compounds or mixtures were sprayed onto the insect diet at 10 μl, using a custom built micro atomizer, at two replications.
as §1
After application, microtiter plates were incubated at 28±1° C., 80±5% RH for 5 days. Egg and larval mortality was then visually assessed.

[8] = system: Cowpea aphid (Aphis craccivora); assay: B.3 Cowpea aphid leaf disk test; conditions: foliar, 120 h
Method: If not otherwise specified, the test solutions are prepared as follows:
The active compound is dissolved at the desired concentration in a mixture of 1:1 (vol:vol) distilled water: acetone. The test solution is prepared at the day of use.
B.3 Cowpea aphid (Aphis craccivora):
For evaluating control of Cowpea aphid through contact or systemic means the test unit consists of 24-well-microtiter plates containing broad bean leaf disks.
The compounds are formulated using a solution containing 75% v/v water and 25% v/v DMSO. Different concentrations of formulated compounds are sprayed onto the leaf disks at 2.5 μl, using a custom built micro atomizer, at two replications.
After application, the leaf disks are air-dried and 5-8 adult aphids placed on the leaf disks inside the microtiter plate wells. The aphids are then allowed to suck on the treated leaf disks and incubated at about 23±1° C. and about 50±5% relative humidity for 5 days. Aphid mortality and fecundity is then visually assessed.

SMILES: C[n+]1c([O-])c(-c2ccccc2)c(=O)n2c1SC[C@@H]2c1cnc(Cl)s1 [I-R-1, (3R)-3-(2-chlorothiazol-5-yl)-8-methyl-7-oxo-6-phenyl-2,3-dihydrothiazolo[3,2-a]pyrimidin-4-ium-5-olate]
- mortality at 10 ppm [1]: 100%
- Feeding damage (%) (Chilo suppressalis; Chilo suppressalis neonates, foliar spraying, Dose 200 ppm, 14 DAT): 7%
- mortality at 200 ppm (Chilo suppressalis; Chilo suppressalis, foliar, 336 h): 99%
- Average control % ([2]; Table 7.1, solo application I-R-1, use rate 2 ppm): 25%
- Average control % ([2]; Table 7.2, solo application I-R-1, use rate 2 ppm): 25%
- Average control % [3]: 0%
- Average control % ([4]; Table 6.1, after 7 days): 62%
- Average control % ([4]; Table 6.2, after 7 days): 62%
- Average control % ([5]; Table 9.1, solo application I-R-1, use rate 50 ppm): 25%
- Average control % ([5]; Table 9.2, solo application I-R-1, use rate 10 ppm): 25%
- Average control % ([6]; Table 11.1, solo application I-R-1, use rate 50 ppm): 25%
- Average control % ([6]; Table 11.2, solo application I-R-1, use rate 10 ppm): 0%
- Average control % ([7]; Table 4.1, solo application I-R-1, use rate 10 ppm): 0%
- Average control % ([7]; Table 4.2, solo application I-R-1, use rate 0.4 ppm): 0%
- mortality at 1 ppm [8]: 90%
